Type in all cases: in vivo, mouse
Assay [1] relates to NOD.Foxp3DTR mice. The assay is described as follows: Flow cytometry of PLN cells of NOD.Foxp3DTR mice. The procedure: FIG. 6a illustrates details of the mouse model used to analyze the therapeutic effects and mechanisms by which AhR activation alters T cell differentiation. […] Arrows 152 illustrate the NOD.Foxp3^DTR mice were orally dosed with 60 mg/kg AHRL1 on days −1, 1, 3, 5, and 7 relative to DT treatment on day 0. The carrier for AHRL1 was a 30% DMSO, 20% CREMAPHOR, 50% PECEOL solution. Data was also collected from NOD.Foxp3^DTR mice treated with TCDD on day −1 relative to DT treatment on day 0. […] Non-obese diabetic Foxp3 wild type (NOD.Foxp3^WT) mice treated with DT and NOD.Foxp3^DTR mice treated with vehicle were used as controls. The vehicle was the carrier for AHRL1. Arrow 158 illustrates sacrifice of the mice on day 9.
The leukocyte composition of the pancreas and draining lymph nodes was analyzed using flow cytometry. Draining lymph nodes and pancreata were excised from the sacrificed mice, and single cell suspensions were prepared for analysis with flow cytometry. […] Data were acquired using an FC-500 flow cytometer (BECKMAN COULTER) and compensated and analyzed using FLOWJO software. […]
A general note: In flow cytometry, cells or beads pass a laser one at a time.

A further assay concerns NOD mice. The assay is described as follows: Flow cytometry of leukocyte composition of pancreas, PLN and spleen of NOD mice. The procedure:
The leukocyte composition of the pancreas and draining lymph nodes was analyzed at 12, 15, and 20 weeks of age using flow cytometry. Mice were sacrificed at 12, 15, and 20 weeks of age, draining lymph nodes and pancreata were excised, and single cell suspensions were prepared for analysis with flow cytometry. Fc receptors were blocked with rat immunoglobulin G (IgG) acquired from Jackson ImmunoResearch. The cells were stained with the following antibodies: CD4 (RM4, eBioscience), CD8 (53-6.7, eBioscience), CD19 (1D3, eBioscience), CD45 (30-F11, BD Biosciences), Foxp3 (FJK-16s, eBioscience), Nrp1 (3DS304M, eBioscience), CD25 (PC61.5, eBioscience), RORγt (AFKJS-9, eBioscience). For intracellular staining, cells were fixed and permeabilized using a Foxp3 Fixation/Permeabilization buffer acquired from eBioscience (San Diego, Calif.). Data were acquired using a FC-500 flow cytometer (BECKMAN COULTER) and compensated and analyzed using FLOWJO software. Fluorescence minus one (FMO) controls were used for setting gates for analysis.
FIGS. 3a-3f illustrate results comparing the leukocyte composition of the vehicle treated NOD mice to the ARHL1 treated NOD mice from FIG. 2b. The leukocyte composition of the vehicle treated NOD mice to the ARHL1 treated NOD mice was analyzed at 12 weeks of age. Student's t-test was used for analysis. Sample size of n=5-9 mice per group was used. A single asterisk (*) signifies p≤0.05; a double asterisk (**) signifies p≤0.01; a triple asterisk (***) signifies p≤0.001.
FIGS. 4a-4t illustrate results comparing leukocyte composition of draining lymph nodes in vehicle treated, AHRL1 treated, and TCDD treated NOD mice at 12, 15, and 20 weeks of age. Seven-week-old NOD mice were treated with vehicle, AHRL1, or TCDD as described with reference to FIG. 2b. At 12 weeks of age, 15 weeks of age, and 20 weeks of age, the draining lymph nodes were excised from the mice and stained with CD4 antibodies and Foxp3 antibodies. The results were analyzed by flow cytometry and plotted as average +/−standard deviation (s.d.). A sample size of n=5-9 mice per group was used. A single asterisk (*) signifies p≤0.05.

Assay [2] deals with NOD.Foxp3DTR mice. The experiment in a line: Islet infiltration in Foxp3 depleted (DT treated) NOD.Foxp3DTR mice. The following applies: day 9, AHRL1 60 mg/kg oral days -1, 1, 3, 5, 7, TCDD day -1. An excerpt:
FIGS. 6a-6e illustrate the therapeutic effects of treatment with an AhR ligand on a Foxp3 deficient subject using a NOD.Foxp3− mouse model. […]. NOD.Foxp3^DTR mice were obtained from the Juvenile Diabetes Research Foundation Center (JDRF) for Immune Tolerance in Diabetes at Harvard (CITDH). Mice were bred and maintained under specific pathogen-free conditions at Oregon State University facilities. All experimental procedures using animals were approved by the Institutional Animal Care and Use Committee at Oregon State University.
FIG. 6a illustrates details of the mouse model used to analyze the therapeutic effects and mechanisms by which AhR activation alters T cell differentiation. […] Arrows 152 illustrate the NOD.Foxp3^DTR mice were orally dosed with 60 mg/kg AHRL1 on days −1, 1, 3, 5, and 7 relative to DT treatment on day 0. The carrier for AHRL1 was a 30% DMSO, 20% CREMAPHOR, 50% PECEOL solution. Data was also collected from NOD.Foxp3^DTR mice treated with TCDD on day −1 relative to DT treatment on day 0. […]
The pancreases from the sacrificed mice were excised, sectioned, and stained with hematoxylin and eosin for analysis of islet infiltration by inflammatory CTL cells. Islet infiltration was scored on sequential hematoxylin and eosin stained pancreas sections separated by 200 μm. Islets were scored as no infiltration, less than 50% infiltration, or greater than 50% infiltration. […]

For `Clc1cc2c(cc1Cl)Oc1cc(Cl)c(Cl)cc1O2` [TCDD, 2,3,7,8-tetrachlorodibenzo-p-dioxin], the “percentage of CD4+Foxp3- cells that were Nrp1+” value is on record as “decreased” in the assay on NOD.Foxp3DTR mice [1] (DT treated NOD.Foxp3DTR mice) and “decrease” in the assay with NOD mice (NOD.Foxp3WT mice, 20 weeks of age). Moreover, the “percentage of CD4+Foxp3- cells that were RORγt+” value in the assay with NOD.Foxp3DTR mice [1] (TCDD treated mice) came to 0.42%. Further, the “percentage of Foxp3+ cells gated on CD4+ cells” value was “higher percentage” in the assay with NOD mice (PLN, 12 weeks of age); “higher percentage” with NOD mice (PLN, 15 weeks of age); “higher percentage” in the assay with NOD mice (PLN, 20 weeks of age); “higher percentage” with NOD mice (spleen, 12 weeks of age, vs vehicle); “higher percentage” with NOD mice (spleen, 15 weeks of age, vs vehicle); “higher percentage” in the assay with NOD mice (spleen, 20 weeks of age, vs vehicle). The “islets showing no infiltration” value with NOD.Foxp3DTR mice [2] is listed as “greater percentage of islets being free from infiltration”.
